# Assay results as given in publication PMC4558462, “A new small molecule inhibitor of soluble guanylate cyclase” (Bioorganic & Medicinal Chemistry, 2015).
# System: adenylyl cyclase
# Assay: Adenylyl cyclase activity (data not shown)
# Type: biochemical
# Excerpt: The sGC heterodimer is composed of a α-subunit and a shorter β-subunit which presents in the N-terminal the prosthetic haem group bound to histidine-105.[27] Each subunit is composed of a haem-nitric oxide binding domain, a PAS-like domain, a coiled-coil bundle, and the C-terminal catalytic domain where turnover of GTP into cGMP occurs.[28] […] The two sites are different, and small molecules can bind to one or to both sites, thus showing a 1:1 or 1:2 binding ratio. We have previously shown by surface plasmon resonance (SPR) that ATP binds to both sites and may inhibit sGC activity via competition with GTP, highlighting the potential for allosteric regulation of the enzyme.[24] GC domains are also present in the membrane-bound natriuretic peptide receptors type-A and type-B. There receptors, also referred to as particulate GCs (pGCs), are activated by binding of natriuretic peptides to the extracellular domain of the receptors, leading to an increase in GTP turnover at the intracellular GC domain.[32–34] In this study we observed by SPR that compound 10 bound to the catalytic domain of sGC in a 1:1 ratio. […] However, activity against kinases or phosphodiesterases was not investigated.
compound,measurement,setting,value
"O=[N+]([O-])c1ccc2nc(Nc3ccc(O)cc3)c(Nc3ccc(O)cc3)nc2c1 [Compound 10, 4,4′-((6-Nitroquinoxaline-2,3-diyl)bis(azanediyl))diphenol]",activity on adenylyl cyclase,basal,no activity
same,activity on adenylyl cyclase,forskolin-stimulated,no activity
